Assay type in all cases: in vivo
The subject of data set [1] is New Zealand White rabbits. As to the kind of experiment: Analysis for fatty streak in the main artery of cholesterol-fed rabbits (Oil Red O staining). The following applies: 1 % cholesterol diet for 6 weeks plus 1 mg/kg Lovastatin or 0.05 % neohesperidin dihydrochalcone. How it is done:
(§1) 30 three-month-old New Zealand White rabbits(Yeonam Horticulture and Animal Husbandry College, Korea), each weighing about 2.5 to 2.6 kg, were raised under a condition of temperature 20±2°C, relative humidity 55±5 %, and photoperiod 12L/12D. The rabbits were divided into 3 groups and 3 groups of rabbits were fed with 3 different diets, i.e., RC4 diet(Oriental Yeast Co., Japan) containing 1 % cholesterol(Control group); 1 % cholesterol plus 1 mg/kg Lovastatin®(Merck, U.S.A.)(Lovastatin group); and 1 % cholesterol plus 0.05 % neohesperidin dihydrochalcone(Neohesperidin dihydrochalcone group), respectively. RC4 diet comprises 7.6 % moisture, 22.8 % crude protein, 2.8 % crude fat, 8.8 % crude ash, 14.4 % crude cellulose and 43.6 % soluble nitrogen-free substances. Neohesperidin dihydrochalcone was purchased from Sigma Chemical Co.(St. Louis, MO).
(§2) The rabbits were fed for 6 weeks while being allowed free access to the diets and water.
The chest of each of the rabbits sacrificed in Step 2 was incised. The downward portion of the main artery from the site 1 cm above the aortic valve was cut out in a length of about 5 cm and the fat surrounding the main artery was removed. The main artery was incised in the middle along the longitudinal axis and pinned to a dish. The moist artery was photographed and, then, the staining of fatty streaks was carried out in accordance with the method of Esper, E., et al. (J. Lab. Clin. Med., 121, 103-110(1993)) as follows.
A part of the incised main artery was washed three times with anhydrous propylene glycol for 2 min and stained for 30 min. with a saturated solution of Oil Red O(ORO, Sigma Co.) dissolved in propylene glycol. Thereafter, the artery was washed twice with 85 % propylene glycol for 3 min. to remove remaining staining solution and, then washed with physiological saline. The artery was photographed and the photograph was traced. The area of stained region (fatty streak region) was determined with an image analyzer(LEICA, Q-600, Germany) and its proportion(%) to the total arterial area was calculated.

The subject of data set [2] is New Zealand White rabbits. Nature of the data set: Microscopic grading of abnormal fat-containing cells in the liver of cholesterol-fed rabbits (fatty liver). The following applies: 1 % cholesterol diet for 6 weeks plus 1 mg/kg Lovastatin or 0.05 % neohesperidin dihydrochalcone. How it is done:
as §1, §2
In order to evaluate the effects of feeding a high cholesterol diet with neohesperidin dihydrochalcone on liver tissues, the liver specimens taken from the sacrificed rabbit in Step 2 of Example 6 were treated in accordance with the procedure disclosed in Fogt F. and Nanji A., Toxicology and Applied Pharmacology, 136, 87-93, 1996; and Keegan A., et al., Journal of Hepatology 23: 591-600, 1995, and observed under a microscope to be classified into four grades, i.e., 1+(0-25%), 2+(26-50%), 3+(51-75), 4+(76-100%) based on the proportion of abnormal fat-containing cells around the central vein in the liver acinus.
Figs. 2A, 2B and 2C present the microscopic features of the livers of the rabbits administered with 1% cholesterol; 1% cholesterol plus 1 mg/kg Lovastatin®; 1% and cholesterol plus 0.05% neohesperidin dihydrochalcone, respectively.

Data set [3] relates to New Zealand White rabbits. As to the kind of experiment: Chemical analysis of blood of cholesterol-fed rabbits. The following applies: rabbit serum, 1 % cholesterol diet for 6 weeks plus 1 mg/kg Lovastatin or 0.05 % neohesperidin dihydrochalcone. How it is done:
as §1, §2
After six weeks, the rabbits were anesthetized with an intramuscular injection of ketamine (50 mg/kg) in the femoral region and sacrificed.

As for `CC[C@H](C)C(=O)O[C@H]1C[C@@H](C)C=C2C=C[C@H](C)[C@H](CC[C@@H]3C[C@@H](O)CC(=O)O3)[C@H]21` [Lovastatin, reference compound], the “A: Proportion(%) of fatty streak region to the total arterial area” value in data set [1] (rabbit main artery) is given as 5 (±4) %. For the same compound, the “layer of macrophage-lipid complex on the arterial endothelium (Figs. 1B, 1C)” value in data set [1] (rabbits) was “no or very thin layers of macrophage-lipid complex”. Also, in data set [2] (rabbit liver, cells around the central vein, mean of grades 1+ to 4+), the “B: Proportion of abnormal fat-containing cells” value is 3.4 (±0.5). Moreover, the “microscopic features of the liver (Figs. 2B, 2C)” value in data set [2] (rabbits) is “many cells containing excessive fat”. Besides, in data set [3], the GOT is recorded as 125 (±19) IU/1, the GPT is 73 (±9) IU/l, the Total-C is on record as 1210 (±263) mg/dl and the γ-GTP was 12.4 (±0.8) IU/l.

Values taken from EP1113726B1, “USE OF NEOHESPERIDIN DIHYDROCHALCONE FOR THE MANUFACTURE OF A MEDICAMENT FOR PREVENTING OR TREATING ELEVATED BLOOD LIPID LEVEL-RELATED DISEASES” (Korea Research Institute of Bioscience and Biotechnology, priority 1998, dated 2000).
